From publication PMC12608305, “Rapid Hemi-Synthesis of Multifunctional Amphiphilic Derivatives Based on Polyphenolic Extractives: Surface Activity, Antioxidant and Antibacterial Properties” (Molecules, 2025)
Converted amounts (≈) assume the structure as drawn. Like-named read-outs stand apart in the source and are kept apart here.

Columns and labels:
[1] = Surface tension in water by the Wilhelmy plate method (surfactant properties); assay type: physicochemical; details: 25 °C; for Minimum occupied area per molecule at the air–water interface (σ): calculated from curve log C vs. γ; for Critical aggregation concentration (CAC): from curve log C vs. γ
Experimental: The surface tension (γ) in water was determined using the Wilhelmy plate method at 25 °C. […] With this curve, parameters such as critical aggregation concentration (CAC) and minimum occupied area per molecule at the air–water interface (σ) were calculated, as well as the surface tension that remains constant from CAC (γw).
Surface tension (γ) was obtained by the Wilhelmy plate method, using a Force Tensiometer KRUSS at 25 °C. […] The curve log C vs. γ allowed us to calculate critical aggregate concentration (CAC), minimum occupied area per molecule at the air–water interface (σ) and the surface tension (γw) that remains constant after the CAC was obtained. Each measurement was conducted in triplicate.

[2] = Water solubility by saturating water, lyophilizing and weighing; assay type: physicochemical; details: thermodynamic from solid; saturated water
Description: Solubility in water was expressed in mol/L (M).

Escherichia coli = assay: Antibacterial activity by resazurin reduction test; assay type: cell-based; details: fluorescence over 72 h, compounds in DMSO, triplicate, read-out: Antibacterial Activity Against E. coli: IC50
Description: These properties are usually studied by dilution and disk diffusion assay. The resazurin test is another method that can be used for measuring antibacterial activity. It is a protocol based on cell viability assays. […] This process leads to the formation of a pink fluorescent substance called resorufin. This reduction allows bacterial metabolic activity to be measured directly by measuring fluorescence. This is used to determine the antibacterial activity of the compounds being tested, using a fluorescence microplate reader. The lower the resorufin production, the lower the measured fluorescence and the higher the antibacterial activity.
Resazurin is a blue colorant that reduces to the fluorescent pink resorufin when metabolized by the cells from bacterial respiratory chains. The metabolic activity of the cells was measured by reading the fluorescence over 72 h using a BioTek FLx800 Fluorescence Microplate Reader.
Strains of Escherichia coli were cultured for 12 h on solid LB medium (Luria–Bertani) at 35 °C. The next day, some colonies were taken and placed in a nutrient broth and incubated at 35 °C until an optical density of 0.4 was obtained. […] A control with ethoxyethanol was performed. A positive control to verify the growth of the bacteria in the absence of catechin or hemi-synthesis compound was performed as well. The IC50 was calculated using the formula IC50 = (y − b)/a obtained from the equation of the line y = ax + b, where a is the directing coefficient and b the y-intercept. Each measurement was conducted in triplicate.

[3] = Radical scavenging activity by the DPPH method; assay type: biochemical; details: DPPH 10^−4 M in methanol, triplicate
Experimental: This method measures the antioxidant capacity of a compound to reduce the purple-colored DPPH radical solution to yellow-colored DPPH-H. DPPH solution was prepared at a concentration of 10^−4 M in methanol. The IC50 was calculated using the formula IC50 = (y − b)/a obtained from the equation of the line y = ax + b where a is the directing coefficient and b the y-intercept. Each measurement was conducted in triplicate.

[4] = DPPH; cited from earlier work
E. coli = system: E. coli; parameters: method as in PMID 743641; details: cited from earlier work
[5] = parameters: method as in doi:10.1016/j.fluid.2014.09.013; details: anhydrous catechin; cited from earlier work

| SMILES | Surface tension from CAC (γw) [1] | Minimum occupied area per molecule at the air–water interface (σ) [1] | Critical aggregation concentration (CAC) [1] | solubility [2] | Radical Scavenging Activity: IC50 [4] | further results |
| --- | --- | --- | --- | --- | --- | --- |
| COc1ccc(O)c(C(C)(C)C)c1 [BHA, Butylated hydroxyanisole] | – | – | – | – | 21.3 ± 0.12 µg/mL | growth of E. coli (E. coli; at concentrations above 100 μg/mL): 33% |
| Cc1cc(C(C)(C)C)c(O)c(C(C)(C)C)c1 [BHT, Butylated hydroxytoluene] | – | – | – | – | 12.8 ± 0.08 µg/mL | effect on growth of E. coli (E. coli; regardless of the concentration): fails to decrease the growth of E. coli |
| Oc1cc(O)c2c(c1)O[C@H](c1ccc(O)c(O)c1)[C@@H](O)C2 [Catechin, (+)-catechin, reference compound] | – | – | – | – | – | Water Solubility [5]: 15700 µM; IC50 (Escherichia coli): 36 ± 2 mM; Radical Scavenging Activity: IC50 [3]: 2.43 ± 0.03 µg/mL |
| O=C(O)/C=C/c1ccc(O)c(O)c1 [caffeic acid] | – | – | – | – | 10.64 µg/mL | – |
| O=C(O)c1cc(O)c(O)c(O)c1 [gallic acid] | – | – | – | – | 2.04 ± 0.03 µg/mL | – |
| O=c1c(O)c(-c2ccc(O)c(O)c2)oc2cc(O)cc(O)c12 [quercetin] | – | – | – | – | 1.59 ± 0.02 µg/mL | – |
| COc1cc(C[C@@H](CO)[C@H](CO)Cc2ccc(O)c(OC)c2)ccc1O [secoisolariciresinol] | – | – | – | – | 9.39 ± 0.01 µg/mL | – |
| O=C(OC[C@H]1O[C@@H](OC(=O)c2cc(O)c(O)c(OC(=O)c3cc(O)c(O)c(O)c3)c2)[C@H](OC(=O)c2cc(O)c(O)c(OC(=O)c3cc(O)c(O)c(O)c3)c2)[C@@H](OC(=O)c2cc(O)c(O)c(OC(=O)c3cc(O)c(O)c(O)c3)c2)[C@@H]1OC(=O)c1cc(O)c(O)c(OC(=O)c2cc(O)c(O)c(O)c2)c1)c1cc(O)c(O)c(OC(=O)c2cc(O)c(O)c(O)c2)c1 [tannic acid] | – | – | – | – | 23.65 µg/mL | – |
| O=C1c2c(O)cc(O)cc2OC(c2ccc(O)c(O)c2)C1O (stereo not shown) [taxifolin] | – | – | – | – | 10.06 ± 1.08 µg/mL | – |

Further lines, with some results ahead:

| Surface tension from CAC (γw) [1] | Minimum occupied area per molecule at the air–water interface (σ) [1] | Critical aggregation concentration (CAC) [1] | solubility [2] | SMILES | Radical Scavenging Activity: IC50 [4] | further results |
| --- | --- | --- | --- | --- | --- | --- |
| 43 mN/m | 14 Å^2/molecule | 890 µM | 6000 µM (≈ 2500 µg/mL) | CCCCCCCC(=O)OC1Cc2c(O)cc(O)cc2OC1c1ccc(O)c(O)c1 (stereo not shown) [6a, 2-(3,4-Dihydroxyphenyl)-5,7-dihydroxychroman-3-yl octanoate] | – | – |
| 49 mN/m | 17 Å^2/molecule | 680 µM | 4800 µM (≈ 2270 µg/mL) | CCCCCCCCCCCC(=O)OC1Cc2c(O)cc(O)cc2OC1c1ccc(O)c(O)c1 (stereo not shown) [6b, 2-(3,4-Dihydroxyphenyl)-5,7-dihydroxychroman-3-yl dodecanoate] | – | – |
| 41 mN/m | 23 Å^2/molecule | 590 µM | 4800 µM (≈ 2400 µg/mL) | CCCCCCCCCCCCCC(=O)OC1Cc2c(O)cc(O)cc2OC1c1ccc(O)c(O)c1 (stereo not shown) [6c, 2-(3,4-Dihydroxyphenyl)-5,7-dihydroxychroman-3-yl tetradecanoate] | – | – |
| 42 mN/m | 29 Å^2/molecule | 10 µM | 240 µM (≈ 127 µg/mL) | CCCCCCCCCCCCCCCC(=O)OC1Cc2c(O)cc(O)cc2OC1c1ccc(O)c(O)c1 (stereo not shown) [6d, 2-(3,4-Dihydroxyphenyl)-5,7-dihydroxychroman-3-yl hexadecanoate] | – | – |
| 35 mN/m | 8 Å^2/molecule | 100 µM | 1300 µM (≈ 634 µg/mL) | CCCCCCCC(=O)N[C@@H](C)C(=O)OC1Cc2c(O)cc(O)cc2OC1c1ccc(O)c(O)c1 (stereo partly shown) [7a, 2-(3,4-Dihydroxyphenyl)-5,7-dihydroxychroman-3-yl octanoylalaninate] | – | IC50 (Escherichia coli): 32 ± 3 mM; Radical Scavenging Activity: IC50 [3]: 2.06 ± 0.04 µg/mL |
| 32 mN/m | 10 Å^2/molecule | 50 µM | 360 µM (≈ 196 µg/mL) | CCCCCCCCCCCC(=O)N[C@@H](C)C(=O)OC1Cc2c(O)cc(O)cc2OC1c1ccc(O)c(O)c1 (stereo partly shown) [7b, 2-(3,4-Dihydroxyphenyl)-5,7-dihydroxychroman-3-yl dodecanoylalaninate] | – | IC50 (Escherichia coli): 34 ± 3 mM; Radical Scavenging Activity: IC50 [3]: 2.42 ± 0.06 µg/mL |
| 33 mN/m | 19 Å^2/molecule | 40 µM | 580 µM (≈ 332 µg/mL) | CCCCCCCCCCCCCC(=O)N[C@@H](C)C(=O)OC1Cc2c(O)cc(O)cc2OC1c1ccc(O)c(O)c1 (stereo partly shown) [7c, 2-(3,4-Dihydroxyphenyl)-5,7-dihydroxychroman-3-yl tetradecanoylalaninate] | – | IC50 (Escherichia coli): 23 ± 1 mM; Radical Scavenging Activity: IC50 [3]: 2.01 ± 0.05 µg/mL |
| 32 mN/m | 45 Å^2/molecule | 2 µM | 22 µM (≈ 13.2 µg/mL) | CCCCCCCCCCCCCCCC(=O)N[C@@H](C)C(=O)OC1Cc2c(O)cc(O)cc2OC1c1ccc(O)c(O)c1 (stereo partly shown) [7d, 2-(3,4-Dihydroxyphenyl)-5,7-dihydroxychroman-3-yl hexadecanoylalaninate] | – | Radical Scavenging Activity: IC50 [3]: 26.73 ± 0.43 µg/mL |
